Values quoted from earlier work in patent publication US11497789B2, “Formulations of vancomycin” (SciDose Pharma LLC, priority 2016, dated 2022).

Conditions: after reconstitution of the lyophilized product

Question: With CN[C@H](CC(C)C)C(=O)N[C@H]1C(=O)N[C@@H](CC(N)=O)C(=O)N[C@H]2C(=O)N[C@H]3C(=O)N[C@H](C(=O)N[C@H](C(=O)O)c4cc(O)cc(O)c4-c4cc3ccc4O)[C@H](O)c3ccc(c(Cl)c3)Oc3cc2cc(c3O[C@@H]2O[C@H](CO)[C@@H](O)[C@H](O)[C@H]2O[C@H]2C[C@](C)(N)[C@H](O)[C@H](C)O2)Oc2ccc(cc2Cl)[C@H]1O [Vancomycin] as the molecule, how does the “time stable in water after reconstitution” value read?
Answer: approximately 24 hours
